The values that follow come from article PMC10447463, “Data-mining unveils structure–property–activity correlation of viral infectivity enhancing self-assembling peptides” (Nature Communications, 2023).

Where two headings read alike, the source gives them in different places.

In data set [1] the test system is HIV-1 infection of TZM-bl cells. Description: HIV-1 infectivity enhancement assay, β-galactosidase luminescence. It counts as cell-based. The conditions noted are these: for Rel-EFC / Log10 Infection Rel EFC: 1.3 µM peptide; for Rel-EFC: infection relative to EF-C (QCKIKQIINMWQ = 1); for Log10 Infection Rel EFC: log10 of infection relative to EF-C; for Log Infectivity: Log10 infection relative to EF-C, TZM-bl cells, asymmetric std dev errors; for Log10 Infection Rel EF-C: HIV-1 infection of TZM-bl cells; for Abs. Inf.: absolute infection signal, HIV-1 on TZM-bl cells, β-galactosidase luminescence; for Log10 Inf. rel. to EF-C: log10 of HIV-1 infection of TZM-bl cells relative to EF-C (EF-C = 0).

Data set [2] is classed as physicochemical. Set-up: key to Fibril / Fibril Formation / TEM 2cat / Fibril: 1 = fibrils present; 0 non-fibrillar structures. To be noted: for Fibril / Fibril Formation: 1 mg/mL, uranyl acetate stain, qualitative.
Data set [3] can be described thus: Zeta-potential measurement. In kind it is physicochemical. In a few lines:
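Peptides diluted from DMSO stock into PBS pH 7.4 to 1 mg/mL and aged 1 d at RT, then diluted into 1 mM aqueous KCl. Zeta potential derived from electrophoretic mobility via Smoluchowski; triplicates, averaged over two independent experiments.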

Data set [4] can be described thus: Turbidity, derived count rate of scattered light. It counts as physicochemical. To be noted: for Count Rate: derived count rate of scattered light (turbidity); for Log10 Count Rate: turbidity, derived count rate of scattered light, data of Figure 2D.
Where [5] appears, read: Fig. S7 panel A (plotted against β-sheet content).
Where [6] appears, read: Log10 of infection rate relative to EF-C, Figure 3A source data.
Where [7] appears, read: infection rate relative to EF-C, log10, data of Figure 2D.
Where [8] appears, read: infection rate relative to EF-C, log10, source data of Figure 2C.
Setting [9] is: FigS12 panel A, fibril category by TEM.
[10] abbreviates: TEM, 1 = fibrils present, 0 = non-fibrillar.
Where [11] appears, read: TEM, 1 = fibrils present, 0 = non-fibrillar structures.
Setting [12] is: zeta-potential of peptide, source data of Figure 2C.
[13] abbreviates: zeta-potential of the peptide assemblies, mean, Figure 3A source data.
[14] abbreviates: zeta potential of peptide assemblies.
Setting [15] is: Fig. S7 panel B (plotted against CR), rounded to two decimals.

Turning to KVKGVGK, the Rel-EFC in data set [1] is 0,03. Moreover, the “Log10 Infection Rel EFC” value in data set [1] is on record as -1,59. The “Log Infectivity” value in data set [1] (setting [5]) is given as -1.587. Besides, the results for the “Log10 Infection Rel EF-C” value in data set [1] (setting [6]), in data set [1] (setting [7]) and in data set [1] (setting [8]) were -1.59, -1.587 and -1.587, respectively. Further, in data set [1], the “Abs. Inf.” value turned out to be 286.7. For the same substance, the “Log10 Inf. rel. to EF-C” value in data set [1] is recorded as -1.587. In addition, the “TEM 2cat” value in data set [2] (Fig S10 panel D) and in data set [2] (setting [9]) was 0 in each case. Moreover, the Fibril in data set [2] (FigS12 panel B, TEM) is on record as 0; in data set [2] (setting [10]) it was 0; in data set [2] (setting [11]), 0. The “Fibril / Fibril Formation” value in data set [2] (TEM) worked out at 0. For the same substance, in data set [3], the Zeta-Pot. is listed as -12.8. In addition, the “Zeta-Potential / mV” value in data set [3] (setting [12]) is given as -7.825 mV; in data set [3] (setting [13]), -12.8 mV. Moreover, the “Count Rate” value in data set [4] stood at 51.17. Further, the “Log10 Count Rate” value in data set [4] is on record as 1.709.
For KVKVKVQV, the Rel-EFC in data set [1] is listed as 0,02. For the same substance, in data set [1], the “Log10 Infection Rel EFC” value was -1,76. The “Log Infectivity” value in data set [1] (setting [5]) is listed as -1.763. In addition, the “Log10 Infection Rel EF-C” value is recorded as -1.76 in data set [1] (setting [6]), -1.763 in data set [1] (setting [7]) and -1.763 in data set [1] (setting [8]). The “Abs. Inf.” value in data set [1] came out at 466.7. The “Log10 Inf. rel. to EF-C” value in data set [1] is -1.763. Besides, the “TEM 2cat” value in data set [2] (Fig S10 panel D) and in data set [2] (setting [9]) was 0 each time. For the same substance, the Fibril in data set [2] (FigS12 panel B, TEM) is given as 0; in data set [2] (setting [10]) it was 0; in data set [2] (setting [11]) it was 0. The “Fibril / Fibril Formation” value in data set [2] (TEM) turned out to be 0. Besides, in data set [3], the Zeta-Pot. is listed as -3.41. Further, the “Zeta-Potential / mV” value in data set [3] (setting [12]) was -0.6533 mV; in data set [3] (setting [13]) it was -3.41 mV. In data set [4], the “Count Rate” value amounted to 94.37. Also, the “Log10 Count Rate” value in data set [4] turned out to be 1.975.
Turning to KWKWQW, the Rel-EFC in data set [1] was 0,01. For the same substance, the “Log10 Infection Rel EFC” value in data set [1] was -1,84. The “Log Infectivity” value in data set [1] (setting [5]) was -1.838. Also, the “Log10 Infection Rel EF-C” value in data set [1] (setting [6]) was -1.84; in data set [1] (setting [7]), -1.838; in data set [1] (setting [8]), -1.838. In addition, the “TEM 2cat” value in data set [2] (Fig S10 panel D) and in data set [2] (setting [9]) was 0 throughout. In addition, the Fibril is on record as 0 in data set [2] (FigS12 panel B, TEM); 0 in data set [2] (setting [10]); 0 in data set [2] (setting [11]). In data set [2] (TEM), the “Fibril / Fibril Formation” value was found to be 0. Moreover, the Zeta-Pot. in data set [3] (setting [14]) amounted to 7.55. The “Zeta-Potential / mV” value in data set [3] (setting [12]) was determined as 3.331 mV; in data set [3] (setting [13]), 7.55 mV. Further, the “Count Rate” value in data set [4] was found to be 1545. For the same substance, in data set [4], the “Log10 Count Rate” value was 3.189.
KYKGAIIGNIK: the Rel-EFC in data set [1] worked out at 0. Moreover, the “Log10 Infection Rel EFC” value in data set [1] was -2,51. Moreover, in data set [1] (setting [5]), the “Log Infectivity” value is -2.508. Further, the results for the “Log10 Infection Rel EF-C” value in data set [1] (setting [6]), in data set [1] (setting [7]) and in data set [1] (setting [8]) were -2.51, -2.508 and -2.508, respectively. Further, in data set [1], the “Abs. Inf.” value stood at 80. The “Log10 Inf. rel. to EF-C” value in data set [1] was -2.508. The “TEM 2cat” value in data set [2] (Fig S10 panel D) and in data set [2] (setting [9]) was 0 each time. The Fibril in data set [2] (FigS12 panel B, TEM) was found to be 0; in data set [2] (setting [10]), 0; in data set [2] (setting [11]), 0. In addition, the “Fibril / Fibril Formation” value in data set [2] (TEM) is recorded as 0. In addition, in data set [3], the Zeta-Pot. is on record as -9.14. Further, the “Zeta-Potential / mV” value in data set [3] (setting [12]) is reported as -5.205 mV; in data set [3] (setting [13]) it was -9.14 mV. In addition, in data set [4], the “Count Rate” value worked out at 44.1. Besides, the “Log10 Count Rate” value in data set [4] was determined as 1.644.
KYKYQY: the Rel-EFC in data set [1] was 0,01. Moreover, the “Log10 Infection Rel EFC” value in data set [1] is listed as -1,99. Besides, in data set [1] (setting [5]), the “Log Infectivity” value is recorded as -1.9887. Moreover, the “Log10 Infection Rel EF-C” value in data set [1] (setting [6]) was -1.99; in data set [1] (setting [7]), -1.9887; in data set [1] (setting [8]) it was -1.9887. Also, the “TEM 2cat” value in data set [2] (Fig S10 panel D) and in data set [2] (setting [9]) was 0 throughout. Besides, the Fibril was determined as 0 in data set [2] (FigS12 panel B, TEM); 0 in data set [2] (setting [10]); 0 in data set [2] (setting [11]). Further, the “Fibril / Fibril Formation” value in data set [2] (TEM) was found to be 0. In addition, the Zeta-Pot. in data set [3] (setting [14]) was -4.2. For the same substance, the “Zeta-Potential / mV” value in data set [3] (setting [12]) is given as -3.008 mV; in data set [3] (setting [13]), -4.2 mV. Also, in data set [4], the “Count Rate” value is on record as 31.53. Moreover, in data set [4], the “Log10 Count Rate” value was 1.499.
With MDQMDQMDQMDQMDQ, the Rel-EFC in data set [1] came to 0. In addition, in data set [1], the “Log10 Infection Rel EFC” value is listed as -2,37. Also, the “Log Infectivity” value in data set [1] (setting [5]) and in data set [1] (setting [15]) was -2.37 throughout. For the same substance, the “Log10 Infection Rel EF-C” value in data set [1] (setting [6]), in data set [1] (setting [7]) and in data set [1] (setting [8]) was -2.37 throughout. In addition, the “Abs. Inf.” value in data set [1] turned out to be 63.33. Besides, the “Log10 Inf. rel. to EF-C” value in data set [1] was -2.37. Also, the “TEM 2cat” value in data set [2] (Fig S10 panel D) and in data set [2] (setting [9]) was 0 in each case. In addition, the Fibril in data set [2] (Fig S10 panel E) is recorded as 0; in data set [2] (FigS12 panel B, TEM), 0; in data set [2] (setting [10]), 0; in data set [2] (setting [11]), 0. Besides, the “Fibril / Fibril Formation” value in data set [2] (TEM) is given as 0. In data set [3], the Zeta-Pot. is recorded as -14.98. The “Zeta-Potential / mV” value in data set [3] (setting [12]) is recorded as -10.69 mV; in data set [3] (setting [13]), -14.98 mV. Besides, the “Count Rate” value in data set [4] amounted to 9.6. For the same substance, in data set [4], the “Log10 Count Rate” value turned out to be 0.9823.
MKFKFQF: in data set [1], the Rel-EFC is 0,06. The “Log10 Infection Rel EFC” value in data set [1] is recorded as -1,2. In addition, the “Log Infectivity” value in data set [1] (setting [5]) is given as -1.196; in data set [1] (setting [15]), -1.2. In addition, the “Log10 Infection Rel EF-C” value is reported as -1.2 in data set [1] (setting [6]), -1.196 in data set [1] (setting [7]) and -1.196 in data set [1] (setting [8]). Besides, the “Abs. Inf.” value in data set [1] is reported as 1427. Also, the “Log10 Inf. rel. to EF-C” value in data set [1] is given as -1.196. In addition, the “TEM 2cat” value in data set [2] (Fig S10 panel D) and in data set [2] (setting [9]) was 1 in each case. The Fibril came out at 1 in data set [2] (Fig S10 panel E); 1 in data set [2] (FigS12 panel B, TEM); 1 in data set [2] (setting [10]); 1 in data set [2] (setting [11]). The “Fibril / Fibril Formation” value in data set [2] (TEM) was 1. Further, in data set [3], the Zeta-Pot. is given as -3.133. The results for the “Zeta-Potential / mV” value in data set [3] (setting [12]) and in data set [3] (setting [13]) were -0.4917 mV and -3.13 mV, respectively. In addition, in data set [4], the “Count Rate” value came out at 124. Also, the “Log10 Count Rate” value in data set [4] came out at 2.0933.
For MKFM, in data set [1], the Rel-EFC was 0,02. For the same substance, in data set [1], the “Log10 Infection Rel EFC” value is recorded as -1,76. Moreover, in data set [1] (setting [5]), the “Log Infectivity” value is given as -1.756. The “Log10 Infection Rel EF-C” value is given as -1.76 in data set [1] (setting [6]), -1.756 in data set [1] (setting [7]) and -1.756 in data set [1] (setting [8]). For the same substance, the “Abs. Inf.” value in data set [1] is 383.3. The “Log10 Inf. rel. to EF-C” value in data set [1] was -1.756. Also, the “TEM 2cat” value in data set [2] (Fig S10 panel D) and in data set [2] (setting [9]) was 0 each time. The Fibril in data set [2] (FigS12 panel B, TEM) was determined as 0; in data set [2] (setting [10]), 0; in data set [2] (setting [11]), 0. For the same substance, in data set [2] (TEM), the “Fibril / Fibril Formation” value was found to be 0. The Zeta-Pot. in data set [3] was -16. For the same substance, the “Zeta-Potential / mV” value in data set [3] (setting [12]) is reported as -9.2 mV; in data set [3] (setting [13]) it was -16 mV. Also, the “Count Rate” value in data set [4] came to 130.8. In addition, the “Log10 Count Rate” value in data set [4] amounted to 2.1165.
